Reference: patent US8481521B2, “Methods of treating cell proliferative disorders” (Rigel Pharmaceuticals, Inc., priority 2005, dated 2013)
Values after ≈ are worked out from the molar mass of the structure shown. Read-outs that look alike come from different tables or passages of the source.

Tests used:
[1] = Solubility of drug and phosphate prodrug; format: physicochemical
Source text: In contrast, Compound 4 is highly polar at neutral pH. Measured solubility values are consistent with the predicted cLogD values at pH=7.5.

[2] = system: TEL-Syk-transformed cells; assay: Proliferation (DNA content) and differentiation of TEL-Syk-transformed pre-B cells; format: cell-based
Procedure: Cells were cultured for 3 days in the absence of IL-7 and analyzed for the expression of kappa LC by FACS. Experiments showing the inhibition of proliferation of Syk-transformed cells by a Syk inhibitory compound are described in […]., Abe, A., and Jumaa, H., “The protein tyrosine kinase Syk is involved in malignant transformation and leukemia development,” (manuscript in preparation). The experiments described in the manuscript are briefly summarized below. Aberrant Syk variants resulting from chromosomal translocation Tel-Syk were tested for its ability to transform pre-B cells by retrovirally transducing freshly isolated bone marrow pre-B cells with IRES-GFP vectors expressing Tel-Syk. […] Transformation of the pre B cells by Tel-Syk activity was confirmed by injecting the TEL-SYK transduced cells into RAG/γC-/- mice, which led to animals presenting symptoms of myelodysplastic disease. […] To test whether inhibition of Syk activity in the cells transformed with Tel-Syk block cell proliferation, the effect of Syk kinase inhibitor 2,4-pyrimidinediamine compound IV was tested in vitro by examining the DNA content of treated cells.

[3] = system: Myc-transformed pre-B cells; assay: Proliferation (DNA content) of Myc-transformed pre-B cells; format: cell-based; conditions: 36 hours, 2 μM
Source text: FIG. 2A is a FACS profile of pre-B cells that were transduced with Myc expression vectors and cultured in the absence of IL-7 for 1 week.
To determine the effect of Syk inhibitor on proliferation of leukemic cells, several tumorigenic pre-B cell lines that induce leukemia after injection into mice were used. Because tumorigenic cells need the pre-B cell receptor (pre-BCR) for proliferation, and Syk is a critical protein for pre-BCR signaling cascade, it is expected that Syk inhibitors will inhibit proliferation of these tumorigenic pre-B cells. […] Cells were injected into […] mice to examine their ability to proliferate in vivo.

[4] = system: tumorigenic SLP-65−/− pre-B cell lines; assay: Proliferation (DNA content) of tumorigenic SLP-65-/- pre-B cell lines; format: cell-based; conditions: 36 hours, 2 μM
[5] = Pharmacokinetics in NOD-SCID mice after PO VII calcium salt (plasma VI); format: in vivo; design: T-max (Compound VI in plasma): unit not given here
Procedure: Initial PK data in NOD-SCID mice was generated in an intial study prior to dosing in this study.
Due to precipitates observed in on-study formulations prepared in the initial study and other studies, additional PK data was obtained using remaining dosing solutions after study termination. NOD-SCID female mice (n=4) were dosed with 40 mg/kg dose solution of VII and plasma obtained at 1 hour post dose.
Table 5A and 5B: PO administration of VII Calcium Salt: Mean Concentration of Compound VI in Plasma (ng/mL).

[6] = system: AML cells harboring Flt-3 ITD; assay: Apoptosis of AML cells (Annexin V and PI staining); format: cell-based; conditions: 1 uM, 48 h
Procedure: (§1) AML cells or 32D transfectants were treated for 48 h (AML) or 24 h (32D) with 1 uM VI, and the increase in % of apoptotic cells was determined using Annexin V and PI staining.

[7] = system: 32D transfected with ITD or point mutated Flt-3; assay: Apoptosis of 32D transfectants (Annexin V and PI staining); format: cell-based; conditions: 1 uM, 24 h
Procedure: as §1

[8] = GLP mutagenicity and clastogenicity studies (Ames, chromosomal aberration, mouse micronucleus)
Procedure: (§2) GLP toxicology studies included negative mutagenicity and clastogenicity studies (Ames, chromosomal aberration, and mouse micronucleus). […] The No Observed Adverse Effect Level (NOAEL) is 10-30 mg/kg/day for rats and 100 mg/kg/day for monkeys.

[9] = in vivo
Procedure: as §2

[10] = system: MV4-11 human acute myeloid leukemia cells; assay: Subcutaneous MV4-11 tumor growth (initial studies); format: in vivo, mice
Source text: The Flt-3 ITD mutation has been associated with poor prognosis and reduced remission rates in affected AML patients, making it an attractive target for therapeutic intervention. Studies have shown that mutant Flt-3 ITD receptors dimerize in a Flt-3 ligand-independent manner and auto-phosphorylation of the receptor results in constitutive activation, increased proliferation, and growth factor independence of the mutant cell.

COc1cc(Nc2ncc(F)c(Nc3ccc4c(n3)NC(=O)C(C)(C)O4)n2)cc(OC)c1OC [Compound III, N4-(2,2-dimethyl-3-oxo-4H-5-pyrido[1,4]oxazin-6-yl)-5-fluoro-N2-(3,4,5-trimethoxyphenyl)-2,4-pyrimidinediamine]
solubility ([1]; aqueous buffer, phosphate buffer at pH=7.5, read-out: measured solubility): < 1 µg/mL
solubility ([1]; water solubility, read-out: Solubility): 1 to 2 µg/mL (≈ 2.13 to 4.25 µM)
differentiation of TEL-Syk-transformed pre-B cells (kappa light chain expression) [2]: induce differentiation
proliferation of TEL-Syk-transformed pre-B cells ([2]; DNA content, 36 hours, 2 μM): block proliferation
proliferation of Myc-transformed pre-B cells [3]: block the proliferation
proliferation of tumorigenic SLP-65−/− pre-B cell lines [4]: block the proliferation
plasma levels of VI by 6 hours post-dose ([5]; female mice, 20, 40 or 80 mg/kg doses of VII): virtually undetectable
induced apoptosis of AML cells harboring Flt-3 ITD [6]: uniquely sensitive
apoptosis of 32D transfected with ITD or point mutated Flt-3 vs wt Flt-3 [7]: undergo more apoptosis
mutagenicity and clastogenicity (Ames, chromosomal aberration, mouse micronucleus) [8]: negative
28-day toxicity: hematology, bone marrow cellularity ([9]; monkey): reversible effect
28-day toxicity: hematology, liver transaminase, spleen and thymus size, bone marrow cellularity ([9]; rat): reversible effect

N4-(2,2-dimethyl-4-[(dihydrogen phosphonoxy)methyl]-3-oxo-5-pyrido[1,4]oxazin-6-yl)-5-fluoro-N2-(3,4,5-trimethoxyphenyl)-2,4-pyrimidinediamine mono calcium salt [Compound 6]
AUCinf (Compound VI in plasma) ([5]; PO 20 mg/kg, Female): 5362 ng·h/mL
AUClast (Compound VI in plasma) ([5]; PO 20 mg/kg, Female): 5351 ng·h/mL
C-max (Compound VI in plasma) ([5]; PO 20 mg/kg, Female): 3717 ng/mL
T1/2 (Compound VI in plasma) ([5]; PO 20 mg/kg, Female): 35.4 min
T-max (Compound VI in plasma) ([5]; PO 20 mg/kg, Female): 0.25
Mean Concentration of Compound VI in Plasma ([5]; PO 20 mg/kg, Female, 0.25 hrs): 3717 ng/mL
Mean Concentration of Compound VI in Plasma ([5]; PO 20 mg/kg, Female, 0.5 hrs): 2240 ng/mL
Mean Concentration of Compound VI in Plasma ([5]; PO 20 mg/kg, Female, 1 hrs): 1737 ng/mL
Mean Concentration of Compound VI in Plasma ([5]; PO 20 mg/kg, Female, 2 hrs): 1438 ng/mL
Mean Concentration of Compound VI in Plasma ([5]; PO 20 mg/kg, Female, 4 hrs): 55.0 ng/mL
Mean Concentration of Compound VI in Plasma ([5]; PO 20 mg/kg, Female, 6 hrs): 13.0 ng/mL
AUCinf (Compound VI in plasma) ([5]; PO 20 mg/kg, Male): 11434 ng·h/mL
AUClast (Compound VI in plasma) ([5]; PO 20 mg/kg, Male): 10261 ng·h/mL
C-max (Compound VI in plasma) ([5]; PO 20 mg/kg, Male): 3377 ng/mL
T1/2 (Compound VI in plasma) ([5]; PO 20 mg/kg, Male): 107 min
T-max (Compound VI in plasma) ([5]; PO 20 mg/kg, Male): 0.50
Mean Concentration of Compound VI in Plasma ([5]; PO 20 mg/kg, Male, 0.25 hrs): 1872 ng/mL
Mean Concentration of Compound VI in Plasma ([5]; PO 20 mg/kg, Male, 0.5 hrs): 3377 ng/mL
Mean Concentration of Compound VI in Plasma ([5]; PO 20 mg/kg, Male, 1 hrs): 3280 ng/mL
Mean Concentration of Compound VI in Plasma ([5]; PO 20 mg/kg, Male, 2 hrs): 2130 ng/mL
Mean Concentration of Compound VI in Plasma ([5]; PO 20 mg/kg, Male, 4 hrs): 1209 ng/mL
Mean Concentration of Compound VI in Plasma ([5]; PO 20 mg/kg, Male, 6 hrs): 454 ng/mL
AUCinf (Compound VI in plasma) ([5]; PO 40 mg/kg, Female): 11625 ng·h/mL
AUClast (Compound VI in plasma) ([5]; PO 40 mg/kg, Female): 11498 ng·h/mL
C-max (Compound VI in plasma) ([5]; PO 40 mg/kg, Female): 5497 ng/mL
T1/2 (Compound VI in plasma) ([5]; PO 40 mg/kg, Female): 50.4 min
T-max (Compound VI in plasma) ([5]; PO 40 mg/kg, Female): 1.00
Mean Concentration of Compound VI in Plasma ([5]; PO 40 mg/kg, Female, 0.25 hrs): 5140 ng/mL
Mean Concentration of Compound VI in Plasma ([5]; PO 40 mg/kg, Female, 0.5 hrs): 3597 ng/mL
Mean Concentration of Compound VI in Plasma ([5]; PO 40 mg/kg, Female, 1 hrs): 5497 ng/mL
Mean Concentration of Compound VI in Plasma ([5]; PO 40 mg/kg, Female, 2 hrs): 2823 ng/mL
Mean Concentration of Compound VI in Plasma ([5]; PO 40 mg/kg, Female, 4 hrs): 201 ng/mL
Mean Concentration of Compound VI in Plasma ([5]; PO 40 mg/kg, Female, 6 hrs): 105 ng/mL
AUCinf (Compound VI in plasma) ([5]; PO 40 mg/kg, Male): 27170 ng·h/mL
AUClast (Compound VI in plasma) ([5]; PO 40 mg/kg, Male): 20831 ng·h/mL
C-max (Compound VI in plasma) ([5]; PO 40 mg/kg, Male): 6370 ng/mL
T1/2 (Compound VI in plasma) ([5]; PO 40 mg/kg, Male): 138 min
T-max (Compound VI in plasma) ([5]; PO 40 mg/kg, Male): 2.00
Mean Concentration of Compound VI in Plasma ([5]; PO 40 mg/kg, Male, 0.25 hrs): 3587 ng/mL
Mean Concentration of Compound VI in Plasma ([5]; PO 40 mg/kg, Male, 0.5 hrs): 2860 ng/mL
Mean Concentration of Compound VI in Plasma ([5]; PO 40 mg/kg, Male, 1 hrs): 5250 ng/mL
Mean Concentration of Compound VI in Plasma ([5]; PO 40 mg/kg, Male, 2 hrs): 6370 ng/mL
Mean Concentration of Compound VI in Plasma ([5]; PO 40 mg/kg, Male, 4 hrs): 1730 ng/mL
Mean Concentration of Compound VI in Plasma ([5]; PO 40 mg/kg, Male, 6 hrs): 1909 ng/mL
AUCinf (Compound VI in plasma) ([5]; PO 80 mg/kg, Female): 27662 ng·h/mL
AUClast (Compound VI in plasma) ([5]; PO 80 mg/kg, Female): 27013 ng·h/mL
C-max (Compound VI in plasma) ([5]; PO 80 mg/kg, Female): 8193 ng/mL
T1/2 (Compound VI in plasma) ([5]; PO 80 mg/kg, Female): 58.2 min
T-max (Compound VI in plasma) ([5]; PO 80 mg/kg, Female): 2.00
Mean Concentration of Compound VI in Plasma ([5]; PO 80 mg/kg, Female, 0.25 hrs): 3847 ng/mL
Mean Concentration of Compound VI in Plasma ([5]; PO 80 mg/kg, Female, 0.5 hrs): 7433 ng/mL
Mean Concentration of Compound VI in Plasma ([5]; PO 80 mg/kg, Female, 1 hrs): 7267 ng/mL
Mean Concentration of Compound VI in Plasma ([5]; PO 80 mg/kg, Female, 2 hrs): 8193 ng/mL
Mean Concentration of Compound VI in Plasma ([5]; PO 80 mg/kg, Female, 4 hrs): 2529 ng/mL
Mean Concentration of Compound VI in Plasma ([5]; PO 80 mg/kg, Female, 6 hrs): 465 ng/mL
subcutaneous tumor growth [10]: reduced subcutaneous tumor growth
